# According to US4434788A, “Enhancer of anti-tumor effect” (Yamasa Shoyu Kabushiki Kaisha, priority 1980, dated 1984):
# Where two headings read alike, the source gives them in different places.
# Legend:
# [1] = system: Chinese hamster-HA-1 cells; test: Plating efficiency of stationary-phase HA-1 cells given enhancer immediately after 1,000 R X-ray (inhibition of PLDR); assay type: cell-based; settings: for Plating efficiency after 4 hours: control 2.1; for Plating efficiency after 7 hours: control 3.3
# Experimental: (§1) (1) Cells under stationary phase, prepared by planting 2×10^5 cells/well of Chinese hamster-HA-1 cells in a multiwell dish and exchanging cultural medium every day starting on the third day and thereafter were irradiated with 1,000 R of X-rays. Immediately after radiation, 3'-dUrd, and 3'-dGuo in HANKs' balanced salt solution were administered. Then, after elapse of various times, the cells were taken off with trypsin, and a suitable number of cells were transferred into petri dishes for testing colony forming ability and plating efficiencies. The percentages of survival were calculated with corrections by the plating efficiencies with the pharmaceutical agents alone.
# [2] = as above; assay type: cell-based, Chinese hamster; settings: chinese hamster, ha-1 cells, no irradiation, control 51, read-out: Plating efficiency, treated only with enhancer (after 7 hours)
# Experimental: as §1
# [3] = system: potentially lethal damage repair; test: PLDR-inhibiting / radiosensitizing activity (general statements)
# EMT-6 tumors [4] = test: Radiosensitizing effect on EMT-6 tumor in mouse, cure percentage and TCD50; assay type: in vivo, BALB/c-strain female mice; settings: 100 mg/kg i.p. after irradiation; for Cure number/Number treated / Cure percentage: >90 days
# Experimental: EMT-6 tumor cells (2×10^5) were inoculated intradermally into the right thighs of BALB/c-strain female mice (8 weeks old). When the tumor sizes reached 5.5 to 8.0 mm after inoculation of the tumor cells, irradiation was locally carried out with 1,000 rad to 2,700 rad of 32 MeV electron beam under no anesthesia, and thereafter 3'-dAdo and 3'-dGuo, each dissolved in physiological saline solution, were administered intraperitoneally in a dose of 100 mg/kg. After the treatments, observation was continued for longer than 90 days, and the cure percentages were determined for comparison with the control group. [formula]
# (2) TCD50 =50% Tumor control dose
# Acute toxicity test = settings: mouse, in vivo, ip, ICR mice, male, one week; estimated
# Experimental: A quantity of 3'-dGuo was administered intraperitoneally to ICR mice (male, 8-weeks old, 10 mice for each group) in a dose of 500 mg/kg or 1,000 mg/kg, and the mice were subjected to observation for a week.
# EMT-6 tumors [5] = test: Enhancement of the effect of anti-tumor agents on EMT-6 tumor in mouse; assay type: in vivo, BALB/c-strain mice
# Experimental: (1) EMT-6 tumor cells (1×10^6) were inoculated intradermally into the right thighs of BALB/c-strain mice (7 weeks old). On the 10th day after inoculation of the tumor cells and thereafter, various enhancer chemicals in physiological saline solutions were administered intrapenitoneally to the mouse every other day in the indicated doses for respective agents. The pharmaceutical agents of the present invention were administered 30 minutes after administration of the anti-tumor agents. After commencement of the treatment with pharmaceutical agents, the tumor sizes were measured every other day and compared with the control group.
# EMT-6 tumors [6] = test: Radiosensitizing effect on EMT-6 tumor in mouse, 1500 rad, tumor size and cure; assay type: in vivo, BALB/c-strain female mice
# [7] = Irradiation 1500 rad + 3'-dGuo 2.0 mg/mouse, irradiation alone 0%
# [8] = Irradiation 1500 rad + 3'-dGuo 2.0 mg/mouse, irradiation alone 0/10
smiles,measurement,setting,value
"Nc1nc2c(ncn2[C@@H]2O[C@H](CO)C[C@H]2O)c(=O)[nH]1 [3'-dGuo, 3'-deoxyguanosine]",Plating efficiency after 4 hours,"[1]; 3'-dGuo 10 μg/ml after 1,000 R",1.6%
same,Plating efficiency after 7 hours,"[1]; 3'-dGuo 10 μg/ml after 1,000 R",2.6%
same,Plating efficiency after 1 hour,"[1]; 3'-dGuo 10 μg/ml after 1,000 R, control (0 μg/ml) 1.4",1.3%
same,Plating efficiency after 1 hour,"[1]; 3'-dGuo 20 μg/ml after 1,000 R, control 1.4",1.2%
same,Plating efficiency after 4 hours,"[1]; 3'-dGuo 20 μg/ml after 1,000 R",1.3%
same,Plating efficiency after 7 hours,"[1]; 3'-dGuo 20 μg/ml after 1,000 R",2.0%
same,Plating efficiency after 1 hour,"[1]; 3'-dGuo 40 μg/ml after 1,000 R, control 1.4",0.96%
same,Plating efficiency after 4 hours,"[1]; 3'-dGuo 40 μg/ml after 1,000 R",1.1%
same,Plating efficiency after 7 hours,"[1]; 3'-dGuo 40 μg/ml after 1,000 R",1.6%
same,Inhibition of repair (PLDR) after irradiation with X-rays,"[1]; HA-1 cells, Table 1",found to inhibit repair (PLDR) after irradiation with X-rays
same,Toxicity as examined by plating efficiencies,"[1]; HA-1 cells, Table 1",Substantially no toxicity was observed
same,viability at 7 h,[2]; 3'-dGuo 10 μg/ml,50%
same,viability at 7 h,[2]; 3'-dGuo 20 μg/ml,47%
same,viability at 7 h,[2]; 3'-dGuo 40 μg/ml,45%
same,Radiosensitizing activity,[3],excellent radiosensitizing activities
same,TCD50 (50% Tumor control dose),"EMT-6 tumors [4]; radiation doses given in rad, control 2400",1250 rad
same,TCD50 ratio,EMT-6 tumors [4]; relative to control 1.0,0.52
same,Cure number/Number treated,"EMT-6 tumors [4]; 1,000 rad, control 1/23",8/26
same,Cure percentage,"EMT-6 tumors [4]; 1,000 rad, control 4%",31%
same,Cure number/Number treated,"EMT-6 tumors [4]; 1,500 rad, control 8/44",21/29
same,Cure percentage,"EMT-6 tumors [4]; 1,500 rad, control 18%",72%
same,Cure number/Number treated,"EMT-6 tumors [4]; 2,100 rad, control 9/24",22/28
same,Cure percentage,"EMT-6 tumors [4]; 2,100 rad, control 38%",79%
same,Cure number/Number treated,"EMT-6 tumors [4]; 2,700 rad, control 13/28",22/25
same,Cure percentage,"EMT-6 tumors [4]; 2,700 rad, control 47%",88%
same,LD50 at 168 h,Acute toxicity test,> 1000 mg/kg
same,Mean tumor diameter 18 days after commencement of treatment,"EMT-6 tumors [5]; 3'-dGuo alone 50 mg/kg × 6, n = 10, before treatment 6.75 ± 1.20, control 11.43 ± 2.30",10.92 ± 3.23 mm
same,Mean tumor diameter ratio 18 days after commencement of treatment,"EMT-6 tumors [5]; 3'-dGuo alone 50 mg/kg × 6, n = 10, control 1.97 ± 0.40",1.62 ± 0.48
same,Mean tumor diameter 7 days after commencement of treatment,"EMT-6 tumors [5]; 3'-dGuo alone 50 mg/kg × 8, n = 6, before treatment 6.08 ± 0.69, control 7.38 ± 0.69",7.45 ± 2.07 mm
same,Mean tumor diameter 14 days after commencement of treatment,"EMT-6 tumors [5]; 3'-dGuo alone 50 mg/kg × 8, n = 6, before treatment 6.08 ± 0.69, control 9.20 ± 1.78",9.10 ± 2.65 mm
same,Mean tumor diameter ratio 7 days after commencement of treatment,"EMT-6 tumors [5]; 3'-dGuo alone 50 mg/kg × 8, n = 6, control 1.27 ± 0.17",1.21 ± 0.24
same,Mean tumor diameter ratio 14 days after commencement of treatment,"EMT-6 tumors [5]; 3'-dGuo alone 50 mg/kg × 8, n = 6, control 1.57 ± 0.40",1.48 ± 0.30
same,Mean tumor diameter 7 days after commencement of treatment,"EMT-6 tumors [5]; ACNU 25 mg/kg × 5 combined with 3'-dGuo 50 mg/kg × 5, n = 7, before treatment 6.23 ± 1.04, control 7.38",5.14 ± 2.29 mm
same,Mean tumor diameter 14 days after commencement of treatment,"EMT-6 tumors [5]; ACNU 25 mg/kg × 5 combined with 3'-dGuo 50 mg/kg × 5, n = 7, before treatment 6.23 ± 1.04, control 9.20",4.90 ± 1.94 mm
same,Mean tumor diameter ratio 7 days after commencement of treatment,"EMT-6 tumors [5]; ACNU 25 mg/kg × 5 combined with 3'-dGuo 50 mg/kg × 5, n = 7, control 1.27",0.80 ± 0.22
same,Mean tumor diameter ratio 14 days after commencement of treatment,"EMT-6 tumors [5]; ACNU 25 mg/kg × 5 combined with 3'-dGuo 50 mg/kg × 5, n = 7, control 1.57",0.76 ± 0.19
same,Mean tumor diameter 7 days after commencement of treatment,"EMT-6 tumors [5]; ADM 2 mg/kg × 8 combined with 3'-dGuo 50 mg/kg × 8, n = 10, before treatment 6.59 ± 1.14, control 7.38",6.16 ± 2.00 mm
same,Mean tumor diameter 14 days after commencement of treatment,"EMT-6 tumors [5]; ADM 2 mg/kg × 8 combined with 3'-dGuo 50 mg/kg × 8, n = 10, before treatment 6.59 ± 1.14, control 9.20",6.30 ± 2.54 mm
same,Mean tumor diameter ratio 7 days after commencement of treatment,"EMT-6 tumors [5]; ADM 2 mg/kg × 8 combined with 3'-dGuo 50 mg/kg × 8, n = 10, control 1.27",0.92 ± 0.18
same,Mean tumor diameter ratio 14 days after commencement of treatment,"EMT-6 tumors [5]; ADM 2 mg/kg × 8 combined with 3'-dGuo 50 mg/kg × 8, n = 10, control 1.57",0.94 ± 0.31
same,Mean tumor diameter 18 days after commencement of treatment,"EMT-6 tumors [5]; BLM 25 mg/kg × 4 combined with 3'-dGuo 50 mg/kg × 4, n = 10, before treatment 6.65 ± 0.96, control 11.43",5.60 ± 1.67 mm
same,Mean tumor diameter ratio 18 days after commencement of treatment,"EMT-6 tumors [5]; BLM 25 mg/kg × 4 combined with 3'-dGuo 50 mg/kg × 4, n = 10, control 1.97",0.84 ± 0.25
same,Mean tumor diameter 18 days after commencement of treatment,"EMT-6 tumors [5]; FT-207 100 mg/kg × 6 combined with 3'-dGuo 50 mg/kg × 6, n = 11, before treatment 6.39 ± 0.94, control 11.43",3.18 ± 2.38 mm
same,Mean tumor diameter ratio 18 days after commencement of treatment,"EMT-6 tumors [5]; FT-207 100 mg/kg × 6 combined with 3'-dGuo 50 mg/kg × 6, n = 11, control 1.97",0.50 ± 0.37
same,Mean tumor diameter 7 days after commencement of treatment,"EMT-6 tumors [5]; araC 50 mg/kg × 8 combined with 3'-dGuo 50 mg/kg × 8, n = 7, before treatment 6.04 ± 0.64, control 7.38",5.96 ± 1.77 mm
same,Mean tumor diameter 14 days after commencement of treatment,"EMT-6 tumors [5]; araC 50 mg/kg × 8 combined with 3'-dGuo 50 mg/kg × 8, n = 7, before treatment 6.04 ± 0.64, control 9.20",5.34 ± 1.57 mm
same,Mean tumor diameter ratio 7 days after commencement of treatment,"EMT-6 tumors [5]; araC 50 mg/kg × 8 combined with 3'-dGuo 50 mg/kg × 8, n = 7, control 1.27",0.97 ± 0.19
same,Mean tumor diameter ratio 14 days after commencement of treatment,"EMT-6 tumors [5]; araC 50 mg/kg × 8 combined with 3'-dGuo 50 mg/kg × 8, n = 7, control 1.57",0.88 ± 0.21
same,Mean tumor diameter 2 weeks after treatment,"EMT-6 tumors [6]; 3'-dGuo 100 mg/kg i.p. after 1500 rad, n = 19, baseline 6.19 ± 0.16 mm, irradiation alone 7.41",6.82 ± 0.44 mm
same,Mean tumor diameter 3 weeks after treatment,"EMT-6 tumors [6]; 3'-dGuo 100 mg/kg i.p. after 1500 rad, n = 19, baseline 6.19 ± 0.16 mm, irradiation alone 8.29",4.83 ± 0.80 mm
same,Diameter ratio 2 weeks after treatment,"EMT-6 tumors [6]; 3'-dGuo 100 mg/kg i.p. after 1500 rad, n = 19, irradiation alone 1.09",1.09 ± 0.06
same,Diameter ratio 3 weeks after treatment,"EMT-6 tumors [6]; 3'-dGuo 100 mg/kg i.p. after 1500 rad, n = 19, irradiation alone 1.17",0.72 ± 0.12
same,Volume ratio 2 weeks after treatment,"EMT-6 tumors [6]; 3'-dGuo 100 mg/kg i.p. after 1500 rad, n = 19, irradiation alone 1.44",1.49 ± 0.19
same,Volume ratio 3 weeks after treatment,"EMT-6 tumors [6]; 3'-dGuo 100 mg/kg i.p. after 1500 rad, n = 19, irradiation alone 2.06",0.92 ± 0.21
same,Cure (number of mice),"EMT-6 tumors [6]; Irradiation 1500 rad + 3'-dGuo 2.0 mg/mouse, 28 days, irradiation alone 1/10",6/19
same,Cure (percent),"EMT-6 tumors [6]; Irradiation 1500 rad + 3'-dGuo 2.0 mg/mouse, 28 days, irradiation alone 10%",32%
same,0.5 to less than 1 of volume ratio excluding cure; Tumor regression rate: slow (percent),EMT-6 tumors [6]; [7],18%
same,Less than 0.5 of volume ratio excluding cure; Tumor regression rate: rapid (percent),EMT-6 tumors [6]; [7],11%
same,0.5 to less than 1 of volume ratio excluding cure; Tumor regression rate: slow (number),EMT-6 tumors [6]; [8],3/19
same,Less than 0.5 of volume ratio excluding cure; Tumor regression rate: rapid (number),EMT-6 tumors [6]; [8],2/19
same,1.0 to less than 2.0 of volume ratio excluding cure; regrowth: slow (number),"EMT-6 tumors [6]; Irradiation 1500 rad + 3'-dGuo 2.0 mg/mouse, irradiation alone 3/10",6/19
same,2.0 or more of volume ratio excluding cure; regrowth: rapid (number),"EMT-6 tumors [6]; Irradiation 1500 rad + 3'-dGuo 2.0 mg/mouse, irradiation alone 6/10",2/19
same,1.0 to less than 2.0 of volume ratio excluding cure; regrowth: slow (percent),"EMT-6 tumors [6]; Irradiation 1500 rad + 3'-dGuo 2.0 mg/mouse, irradiation alone 30%",32%
same,2.0 or more of volume ratio excluding cure; regrowth: rapid (percent),"EMT-6 tumors [6]; Irradiation 1500 rad + 3'-dGuo 2.0 mg/mouse, irradiation alone 60%",11%
